From patent US6713506B2, “Tea polyphenol esters and analogs thereof for cancer prevention and treatment” (University of South Florida, priority 2000, dated 2004)
“Also recorded” adds a separate entry of the source.

Tests used:
[1] = target: T1, proteasomal chymotrypsin-like activity in Jurkat T cell extract (Homo sapiens, UniProt P28074); assay: Proteasome chymotrypsin-like activity in Jurkat T cell free extract; format: biochemical
T1 construct: endogenous in cells; host or cells: Jurkat T cells (whole cell extract or intact cells)
Experimental: FIG. 9. Inhibition of the proteasome activity by tannic acid using a cell free extract. A). The whole cell extract (6.0 μg) from Jurkat T cells is incubated for 90 min at 37° C. with 20 μM of a fluorogenic peptide substrate, Suc-Leu-Leu-Val-Tyr-AMC for the chymotrypsin-like activity, Z-Leu-Leu-Glu-AMC for peptidyl-glutamyl peptide-hydrolyzing (PGPH) activity, and Z-Gly-Gly-Arg-AMC for the trypsin-like activity, in 100 μl of the assay buffer with (filled bars) or without (empty bars) 1 μg/ml of tannic acid. The hydrolyzed AMCs are quantified as described in FIG. 2. B). […] Experiment is performed as described in FIG. 9A.
(§1) Inhibition of the proteasome activity with cell free extracts by tea polyphenols—The whole cell extract (3.5 μg) from Jurkat T cells is incubated for 90 min at 37° C. with 20 μM of a fluorogenic peptide substrate, Suc-Leu-Leu-Val-Tyr-AMC (for the chymotrypsin-like activity), Z-Leu-Leu-Glu-AMC [peptidyl-glutamyl peptide-hydrolyzing (PGPH) activity; Calbiochem], and Z-Gly-Gly-Arg-AMC (for the trypsin-like activity; Bachem), in 100 μl of the assay buffer with or without 10 μM EGCG or EGC. The hydrolyzed AMCs are quantified as described above.

[2] = target: T2, proteasome chymotrypsin-like activity in living Jurkat cells (Homo sapiens, UniProt P28074); assay: Proteasome chymotrypsin-like activity in living Jurkat T cells; format: cell-based
T2 construct: endogenous in cells; host or cells: Jurkat T cells (whole cell extract or intact cells)
Experimental: FIG. 10. Inhibition of the chymotrypsin-like activity by tannic acid in intact Jurkat T cells. Intact Jurkat T cells (1×10^5 cells/ml/well) are cultured in 24-well plates. These cells are first incubated for 12 h with various concentrations of tannic acid as indicated, followed by an additional 2 h-incubation with a fluorogenic peptide substrate, Suc-Leu-Leu-Val-Tyr-AMC for the chymotrypsin-like activity. Then, cell medium (200 μl per sample) is collected and used for measurement of free AMCs.
Inhibition of the proteasome activity in living cells by tea polyphenols—To measure inhibition of the chymotrypsin-like activity in living tumor cells, Jurkat T (1×10^5 cells/ml/well), MCF7 or PC-3 cells (1×10^4 cells/ml/well) are cultured in 24-well plates. These cells are first incubated for 12 h with various concentrations of EGCG, EGC, β-lactone or LLnL, followed by an additional 2 h-incubation with fluorogenic peptide substrates, Suc-Leu-Leu-Val-Tyr-AMC for the chymotrypsin-like activity and Z-Gly-Gly-Arg-AMC for the trypsin-like activity. After that, cell medium (200 μl per sample) is collected and used for measurement of free AMCs.

[3] = target: chymotrypsin-like activity of purified 20S proteasome (UniProt Q9P992); format: biochemical
Chain of chymotrypsin-like activity of purified 20S proteasome (Q9P992 whole entry): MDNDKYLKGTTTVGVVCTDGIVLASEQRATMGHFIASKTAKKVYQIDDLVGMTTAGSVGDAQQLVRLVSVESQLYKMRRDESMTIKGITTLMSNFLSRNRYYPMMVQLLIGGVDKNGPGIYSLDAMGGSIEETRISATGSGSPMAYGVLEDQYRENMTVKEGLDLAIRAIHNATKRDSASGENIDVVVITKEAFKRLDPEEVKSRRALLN
Experimental: FIG. 8. […] A). […] Initially, 0.5 μg of purified 20S proteasome is incubated with 20 μM of a fluorogenic peptide substrate, Suc-Leu-Leu-Val-Tyr-AMC, for 30 min at 37° C. in 100 μl of assay buffer (20 mM Tris-HCl, pH 8.0) with various concentrations of tannic acid. After incubation, the reaction mixture is diluted to 200 μl with the assay buffer, followed by measurement of the hydrolyzed 7-amido-4-methyl-coumarin (AMC) groups using a fluorometer with an excitation filter of 380 nm and an emission filter of 460 nm. B). […] Tannic acid (0.3 μg/ml) and Glucose (180 μg/ml) are used in the proteasome activity assay as described above. C). […] Purified calpain I (3 μg) protein is incubated with 40 μM of a fluorogenic peptide substrate, Suc-Leu-Tyr-AMC, for 30 min at 37° C. in 100 μl of assay buffer (50 mM Tris-HCl, pH 7.5, containing 50 mM NaCl, 1 mM EDTA, 1 mM EGTA, 5 mM β-Mercaptoethanol, 5 mM CaCl2, and 0.1% CHAPS) in the absence (control) or presence of 5 μg/ml of tannic acid or 0.18 μg/ml of calpeptin (calpain inhibitor).
Inhibition of the proteasome activity in vitro by tea polyphenols—To measure the 20S proteasome chymotrypsin-like activity, 0.5 μg of a purified 20S proteasome (Calbiochem) is incubated with 20 μM of a fluorogenic peptide substrate, Suc-Leu-Leu-Val-Tyr-AMC (Calbiochem), for 30 min at 37° C. in 100 μl of assay buffer (20 mM Tris-HCl, pH 8.0), with or without tea polyphenols (purity >95%; Sigma) or tea extract. After incubation, the reaction mixture is diluted to 200 μl with the assay buffer, followed by measurement of the hydrolyzed 7-amido-4-methyl-coumarin (AMC) groups using a VersaFluor™ Fluorometer with an excitation filter of 380 nm and an emission filter of 460 nm (Bio-Rad).

[4] = target: T3, proteasomal trypsin-like activity in Jurkat T cell extract (Homo sapiens, UniProt Q99436); assay: Proteasome trypsin-like activity in Jurkat T cell free extract; format: biochemical; conditions: EGCG 10 μM
T3 construct: endogenous in cells; host or cells: Jurkat T cells (whole cell extract or intact cells)
Experimental: as §1

Jurkat T cells = assay: Cell cycle analysis by flow cytometry, Jurkat T cells; format: cell-based, human
Experimental: FIG. 6. Cell cycle analysis. Asynchronous Jurkat, LNCaP, WI-38, and VA-13 cells are treated with 10 μM EGCG and harvested at the time points indicated. Cells are prepared and analyzed by flow cytometry as described in the The Materials and Methods section of Example 1. Growth arrest is determined by the increase in the percentage of G1 population.
FIG. 12. […] Jurkat T cells are treated with either 50 μg/ml of tannic acid or buffer (−) for up to 48 h. The harvested cells are fixed, resuspended in 1 ml of PBS containing 50 μg/ml of propidium iodide (PI), 100 U/ml of RNase A, and 1 mg/ml of glucose, and analyzed by flow cytometry. Percentages of cells containing G1 S, G2 and M DNA content are indicated. Percentages of the apoptotic cell population containing sub-G1 DNA content is also indicated. Note: tannic acid treatment results in ˜23% increase in G1 and ˜14% increase in apoptotic cell populations.
Cell cycle analysis—Cell cycle analysis based on DNA content is performed as follows. Cells are harvested, counted and washed twice with PBS. Cells (5×10^6 ) are then suspended in 0.5 ml PBS, pipetted and fixed in 5 ml of 70% ethanol for at least 2 h at −20° C. Cells are centrifuged, resuspended in 1 ml of propidium iodide staining solution (50 μg propidium iodide, 100 units RNase A and 1 mg glucose per ml PBS) and incubated at room temperature for 30 min. The cells are then analyzed with FACScan (Becton Dickinson Immunocytometry, CA.), ModFit LT and WinMDI V.2.8 cell cycle analysis software (Verity Software, Topsham, Me.). The cell cycle distribution is shown as the percentage of cells containing G1, S, G2, and M DNA judged by propidium iodide staining.

[5] = tannic acid 50 μg/ml, up to 48 h

| SMILES | inhibition of proteasomal chymotrypsin-like activity in Jurkat T cell extract (in words) [1] | inhibition of chymotrypsin-like activity in living/intact Jurkat cells (in words) [2] | fold less potent than EGCG ([3]; ratio of IC50 to EGCG) | inhibition of proteasomal chymotrypsin-like activity ([1]; 10 μM, Jurkat T cell extract) [%] | effect on proteasomal trypsin-like activity (in words) [4] | inhibition of chymotrypsin-like activity ([2]; 10 μM, living Jurkat cells) [%] | IC50 ([2]; 12 h preincubation) [µM] | IC50 ([3]; read-out: IC50 towards the chymotrypsin-like activity of purified 20S proteasome) [µM] | increase in G1 population (Jurkat T cells; 10 μM, 24 h) [%] | inhibition of purified 20S proteasome chymotrypsin-like activity (in words) [3] | inhibition of chymotrypsin-like activity of the proteasome (in words) ([3]; tannic acid 0.3 μg/ml, glucose 180 μg/ml) | G1 arrest and apoptosis (in words) (Jurkat T cells; tannic acid) | increase in G1 cell population (Jurkat T cells; [5]) [%] | increase in apoptotic cell population (sub-G1) (Jurkat T cells; [5]) [%] |
| --- | --- | --- | --- | --- | --- | --- | --- | --- | --- | --- | --- | --- | --- | --- |
| Oc1cc(O)c2c(c1)O[C@H](c1cc(O)c(O)c(O)c1)[C@H](O)C2 [EGC, (−)-epigallocatechin] | little effect | much less effect | 14,000 fold |  |  |  |  |  |  |  |  |  |  |  |
| O=C(O[C@@H]1Cc2c(O)cc(O)cc2O[C@@H]1c1cc(O)c(O)c(O)c1)c1cc(O)c(O)c(O)c1 [EGCG, (−)-epigallocatechin-3-gallate] | most potent proteasome inhibitor among all the tested polyphenols | inhibitable |  | ~70 | does not affect | 24 | 18 | 0.086 | 10 |  |  |  |  |  |
| O=C(OC[C@H]1O[C@@H](OC(=O)c2cc(O)c(O)c(OC(=O)c3cc(O)c(O)c(O)c3)c2)[C@H](OC(=O)c2cc(O)c(O)c(OC(=O)c3cc(O)c(O)c(O)c3)c2)[C@@H](OC(=O)c2cc(O)c(O)c(OC(=O)c3cc(O)c(O)c(O)c3)c2)[C@@H]1OC(=O)c1cc(O)c(O)c(OC(=O)c2cc(O)c(O)c(O)c2)c1)c1cc(O)c(O)c(OC(=O)c2cc(O)c(O)c(O)c2)c1 [tannic acid] | Dose-dependent inhibition; also recorded: inhibited by tannic acid in a dose-dependent manner | inhibition |  |  |  |  |  |  |  | concentration-dependent; also recorded: inhibited | inhibited | induces G1 arrest and apoptosis | ~23 | ~14 |
